This passage reports melting point results from a melting point compilation (Tetko et al.; mined from patent text by program, amines drawn as free bases though some values may be those of a salt).

The structures appear in SMILES notation.

In turn, `COC(=O)CCc1nc(CCc2ccc(C(=O)OC)cc2)ccc1OCCCC/C=C/c1ccc(OC)cc1` showed a melting point of 59 to 61 °C.
Take `COC(=O)C(Br)Cc1ccc(OC)c(C(=O)NCc2ccc(C(F)(F)F)cc2)c1` (stereo not given): the melting point was 110 to 111 °C.
Compound `CSc1ncc(Oc2cccnc2)c(=O)[nH]1` had a melting point of 205 to 208 °C.
`Cc1cnc2c([N+](=O)[O-])ccc(Cl)c2c1Cl` came in with a melting point of 136 to 138 °C.
On to `O=C(CCCN1CCOCC1)c1ccc2oc3ccc(C(=O)CCCN4CCOCC4)cc3c2c1`, for which the melting point fell in the range of 98 to 99 °C.
Regarding `CC(C)(C)c1cc2c(c(C(C)(C)C)c1)OC(=O)C2=O`, the melting point fell in the range of 165 to 168 °C.
As for `Cc1cc(-n2nnc(-c3ccccc3)n2)sc1C(=O)NCc1ccccc1`, the figure is 155 to 158 °C.
Turning to `CC(=O)Nc1cccnc1Cl`, the melting point lay within 81 to 83 °C.
Consider `O=C(O)c1cnn(-c2cccc(C(F)(F)F)c2)c1`, for which the melting point lay within 145 to 148 °C.
The compound `N#Cc1ccc2c3ccc(C#N)c4c(C#N)ccc(c5ccc(Br)c1c52)c43` had a melting point of 235 to 237 °C.
`Cc1c2c(c(C=O)c(C(C)C)c1OCc1ccccc1)OC(C)(C)C2`: the melting point is 107 to 108 °C.
With `N=C(Nc1cc(NC(=O)/C=C/c2ccccc2Cl)cc(C(F)(F)F)c1)c1cccs1`, the melting point lay within 206 to 208 °C.
As for `CC1(C)CC(C)(C)c2cc(CC(=O)O)ccc21`, the figure is 143 °C; as for `CCCc1c(OCCCCCC(=O)NCCc2cccnc2)ccc(C(C)=O)c1O`, 76 to 78 °C.
`Cn1nc(C(O)c2ccccn2)nc1NCCCOc1cccc(CN2CCCCC2)c1` (stereo not given): the melting point is 152 to 154 °C.
With `O=P1(c2ccccc2)c2ccccc2CN1Cc1ccccc1` (stereo not given), the melting point was in the range of 99 to 101 °C.
As for `COc1ccc2c(c1)c(CC(O)(P(=O)(O)O)P(=O)(O)O)c(C)n2C(=O)c1ccc(Cl)cc1`, the figure is 202 °C; as for `CCCCc1nc2c(N)nc3cc(-c4ccccc4)ccc3c2n1CCCS(C)(=O)=O`, 214 to 216 °C.
`COc1ccccc1C(=C1CN(C(c2ccccc2)c2ccccc2)C1)S(C)(=O)=O` gave a melting point of 204 °C.
In turn, `CCOC(=O)c1cnc2n(c1=O)C(C)CCC2N(C)c1ccccc1` (stereo not given) returned a melting point of 175 to 178 °C.
As for `Cc1nc(-c2sc(-c3ccc(Cl)cc3)nc2C)sc1C(=O)O`, the figure is 265 to 268 °C; as for `CC(=O)Nc1ccc(S(=O)c2ccc(Br)cc2)cc1` (stereo not given), 190 to 191 °C; as for `COC(=O)c1ccccc1-c1cc(-c2ccc(Cl)cc2)no1`, 89.5 to 91 °C.
The compound `CC(C)(C)C1CC(=O)CC(C(C)(C)C)N1` (stereo not given) came in with a melting point of 55.4 °C.
`Cc1ccc(S(=O)(=O)OCCCc2c[nH]c3ccc(F)cc23)cc1` yielded a melting point of 74 °C.
`CCOCc1nc2c(N)nc3cc(-c4cncc(CO)c4)ccc3c2n1CC(C)C` registered a melting point of 211 to 212 °C.
In the case of `CS(=O)c1cccc2c3c(n(Cc4ccc(Cl)cc4)c12)C(CC(=O)O)CCC3` (stereo not given), the melting point lay in the range of 119 to 120 °C.
Compound `COc1cc(C)cc(C(=O)O)c1C12OC1C(=O)c1c(O)cccc1C2=O` (stereo not given) yielded a melting point of 267 to 268 °C.
Consider `N#CNc1nnc(-c2ccccc2Nc2cccc(C(F)(F)F)c2)o1`, for which the melting point is above 230 °C.
For `COc1cc2c(cc1OC)CN(Cc1ccc(OC(=O)N(C)C)c(OC)c1)CC2`, the melting point lay within 126 to 128 °C.
The compound `CC12CC(=O)C3C(CCC4CC(=O)CCC43C)C1CCC2C(=O)CBr` (stereo not given) displayed a melting point of 170 °C.
On to `O=C(O)C(Oc1ccc(Cl)cc1)c1ccc(Oc2ccc(Cl)cc2)cc1` (stereo not given), for which the melting point was 141 to 142 °C.
`CCC1(Br)Cc2cc(OCC(=O)O)c(Cl)c(Cl)c2C1=O` (stereo not given) yielded a melting point of 189 to 191 °C.
Regarding `O=S(=O)(CCCCl)Nc1cccc(Oc2cccc3cccnc23)c1`, the melting point lay within 138 to 140 °C.
On to `COc1ccc(C(=O)Nc2ccccc2)cc1NCc1ccc2c(c1)OCO2`, for which the melting point is 185 to 187 °C.
